Measured values published in patent publication US11136317B2, “NADPH oxidase 4 inhibitors” (ACTELION PHARMACEUTICALS LTD, priority 2015, dated 2021).

These compounds were tested against T1, human NOX4 (Homo sapiens, UniProt Q9NPH5) (assay: Amplex Red activity assay (cellular H2O2 formation in hNOX4 T-REx-293 cells)). Settings: tet-induced 24 h, extracellular H2O2 by Amplex Red, 60 min 25° C., geometric mean if determined several times.
T1 construct: The full-length human NOX4 (NM_016931.3) transcript was cloned; expressed in transfected cells
T1 sequence (Q9NPH5 1-578): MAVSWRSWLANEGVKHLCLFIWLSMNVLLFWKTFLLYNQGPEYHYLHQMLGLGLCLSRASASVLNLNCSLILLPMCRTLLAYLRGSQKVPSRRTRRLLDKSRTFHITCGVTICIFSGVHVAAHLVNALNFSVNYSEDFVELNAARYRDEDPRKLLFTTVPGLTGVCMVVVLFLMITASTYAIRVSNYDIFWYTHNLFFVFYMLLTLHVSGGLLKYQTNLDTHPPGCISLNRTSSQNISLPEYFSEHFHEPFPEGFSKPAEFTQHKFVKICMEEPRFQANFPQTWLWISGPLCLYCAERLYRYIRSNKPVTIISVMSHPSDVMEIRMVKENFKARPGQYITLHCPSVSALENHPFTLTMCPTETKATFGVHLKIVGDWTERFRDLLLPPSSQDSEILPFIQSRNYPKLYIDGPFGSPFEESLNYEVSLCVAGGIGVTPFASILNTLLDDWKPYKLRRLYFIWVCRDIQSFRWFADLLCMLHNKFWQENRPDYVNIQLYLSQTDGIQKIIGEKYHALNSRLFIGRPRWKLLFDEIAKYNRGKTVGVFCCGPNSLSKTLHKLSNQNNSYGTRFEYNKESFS
T1 sequence (P13498 1-195 partner): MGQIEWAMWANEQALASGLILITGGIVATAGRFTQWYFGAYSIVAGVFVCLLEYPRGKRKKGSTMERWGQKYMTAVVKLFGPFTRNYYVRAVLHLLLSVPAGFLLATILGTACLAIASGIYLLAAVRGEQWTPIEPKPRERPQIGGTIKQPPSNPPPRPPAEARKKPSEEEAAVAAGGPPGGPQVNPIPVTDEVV
Assay type: cell-based
Procedure, shortened: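 Tet-induced (1 μg/mL, 24 h) HEK293 T-REx cells stably expressing full-length human NOX4, 20 000 cells/well, exposed to compounds (10 concentrations, 50 μM to 100 nM; 1.25% DMSO) for 60 min at 25°C. Extracellular H2O2 detected by Amplex Red resorufin fluorescence (ex 550/em 600 nm) versus vehicle; IC50 calculated.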

SMILES | IC50
O=C(Nc1ccc2sc(N3CCC4(COC4)C3)nc2c1)c1ccc2c(c1)CCO2 [Example 115, 2,3-Dihydro-benzofuran-5-carboxylic acid [2-(2-oxa-6-aza-spiro[3.4]oct-6-yl)-benzothiazol-5-yl]-amide] | 3.41 µM
O=C(Nc1ccc2sc(N3CCC[C@@H](O)C3)nc2c1)c1ccc2c(c1)CCO2 [Example 116, 2,3-Dihydro-benzofuran-5-carboxylic acid [2-((R)-3-hydroxy-piperidin-1-yl)-benzothiazol-5-yl]-amide] | 2.17 µM
CN(C)CC1CCCN1c1nc2cc(NC(=O)c3ccc4c(c3)CCO4)ccc2s1 (stereo not shown) [Example 117, 2,3-Dihydro-benzofuran-5-carboxylic acid [2-(2-dimethylaminomethyl-pyrrolidin-1-yl)-benzothiazol-5-yl]-amide] | 3.76 µM
O=C(Nc1ccc2oc(N3CC(c4ccccn4)C3)nc2c1)c1ccc2c(c1)CCO2 [Example 120, 2,3-Dihydro-benzofuran-5-carboxylic acid [2-(3-pyridin-2-yl-azetidin-1-yl)-benzooxazol-5-yl]-amide] | 2.34 µM
O=C(Nc1ccc2oc(N3CC(F)(F)C3)nc2c1)c1ccc2c(c1)OCO2 [Example 121, Benzo[1,3]dioxole-5-carboxylic acid [2-(3,3-difluoro-azetidin-1-yl)-benzooxazol-5-yl]-amide] | 9.53 µM
O=C(Nc1ccc2oc(N3CC(O)C3)nc2c1)c1ccc2c(c1)OCO2 [Example 122, Benzo[1,3]dioxole-5-carboxylic acid [2-(3-hydroxy-azetidin-1-yl)-benzooxazol-5-yl]-amide] | 2.11 µM
O=C(Nc1ccc2oc(N3CCCC3)nc2c1)c1ccc2c(c1)OCO2 [Example 127, Benzo[1,3]dioxole-5-carboxylic acid (2-pyrrolidin-1-yl-benzooxazol-5-yl)-amide] | 1.25 µM
O=C(Nc1ccc2oc(N3CCCC34COC4)nc2c1)c1ccc2c(c1)OCO2 [Example 128, Benzo[1,3]dioxole-5-carboxylic acid [2-(2-oxa-5-aza-spiro[3.4]oct-5-yl)-benzooxazol-5-yl]-amide] | 1.74 µM
O=C(Nc1ccc2oc(N3CCOCC3)nc2c1)c1ccc2c(c1)OCO2 [Example 136, Benzo[1,3]dioxole-5-carboxylic acid (2-morpholin-4-yl-benzooxazol-5-yl)-amide] | 1.28 µM
CN1CCN(c2nc3cc(NC(=O)c4ccc5c(c4)OCO5)ccc3o2)CC1 [Example 137, Benzo[1,3]dioxole-5-carboxylic acid [2-(4-methyl-piperazin-1-yl)-benzooxazol-5-yl]-amide] | 1.64 µM
O=C(Nc1ccc2oc(N(C3CC3)C3COC3)nc2c1)c1ccc2c(c1)OCO2 [Example 138, Benzo[1,3]dioxole-5-carboxylic acid [2-(cyclopropyl-oxetan-3-yl-amino)-benzooxazol-5-yl]-amide] | 1.48 µM
O=C(Nc1ccc2oc(N3CC(O)C3)nc2c1)c1ccc2c(c1)CCCO2 [Example 140, Chroman-6-carboxylic acid [2-(3-hydroxy-azetidin-1-yl)-benzooxazol-5-yl]-amide] | 2.52 µM
O=C(Nc1ccc2oc(N3CC(F)(F)C3)nc2c1)c1ccc2c(c1)CCCO2 [Example 141, Chroman-6-carboxylic acid [2-(3,3-difluoro-azetidin-1-yl)-benzooxazol-5-yl]-amide] | 10.6 µM
O=C(Nc1ccc2oc(N3CCC34CCOC4)nc2c1)c1ccc2c(c1)CCCO2 (stereo not shown) [Example 144, Chroman-6-carboxylic acid [2-(6-oxa-1-aza-spiro[3.4]oct-1-yl)-benzooxazol-5-yl]-amide] | 1.54 µM
O=C(Nc1ccc2oc(N3CCC34CCOCC4)nc2c1)c1ccc2c(c1)CCCO2 [Example 145, Chroman-6-carboxylic acid [2-(7-oxa-1-aza-spiro[3.5]non-1-yl)-benzooxazol-5-yl]-amide] | 1.4 µM
O=C(Nc1ccc2oc(N3CCCC3)nc2c1)c1ccc2c(c1)CCCO2 [Example 146, Chroman-6-carboxylic acid (2-pyrrolidin-1-yl-benzooxazol-5-yl)-amide] | 3.18 µM
O=C(Nc1ccc2oc(N3CCCCC3)nc2c1)c1ccc2c(c1)CCCO2 [Example 148, Chroman-6-carboxylic acid (2-piperidin-1-yl-benzooxazol-5-yl)-amide] | 1.88 µM

These reach a lower IC50. Values come first.

IC50 | SMILES
1.09 µM | O=C(Nc1ccc2oc(N3CCC(O)CC3)nc2c1)c1ccc2c(c1)OCO2 [Example 135, Benzo[1,3]dioxole-5-carboxylic acid [2-(4-hydroxy-piperidin-1-yl]-benzooxazol-5-yl]-amide]
1.09 µM | CCN(CC)c1nc2cc(NC(=O)c3ccc4c(c3)OCO4)ccc2o1 [Example 139, Benzo[1,3]dioxole-5-carboxylic acid (2-diethylamino-benzooxazol-5-yl)-amide]
1.08 µM | O=C(Nc1ccc2oc(N3CCC4(CC3)COC4)nc2c1)c1ccc2c(c1)OCO2 [Example 132, Benzo[1,3]dioxole-5-carboxylic acid [2-(2-oxa-7-aza-spiro[3.5]non-7-yl)-benzooxazol-5-yl]-amide]
1.05 µM | COC1CCN(c2nc3cc(NC(=O)c4ccc5c(c4)OCO5)ccc3o2)CC1 [Example 131, Benzo[1,3]dioxole-5-carboxylic acid [2-(4-methoxy-piperidin-1-yl)-benzooxazol-5-yl]-amide]
0.991 µM | O=C(Nc1ccc2oc(N3CCCC(F)(F)C3)nc2c1)c1ccc2c(c1)OCO2 [Example 130, Benzo[1,3]dioxole-5-carboxylic acid [2-(3,3-difluoro-piperidin-1-yl)-benzooxazol-5-yl]-amide]
0.99 µM | CCNc1nc2cc(NC(=O)c3ccc4c(c3)CCO4)ccc2o1 [Example 119, 2,3-Dihydro-benzofuran-5-carboxylic acid (2-ethylamino-benzooxazol-5-yl)-amide]
0.891 µM | O=C(Nc1ccc2oc(N3CCC34CCC4)nc2c1)c1ccc2c(c1)CCCO2 [Example 142, Chroman-6-carboxylic acid [2-(1-aza-spiro[3.3]hept-1-yl)-benzooxazol-5-yl]-amide]
0.87 µM | O=C(Nc1ccc2oc(N3CCC(F)(F)CC3)nc2c1)c1ccc2c(c1)OCO2 [Example 134, Benzo[1,3]dioxole-5-carboxylic acid [2-(4,4-difluoro-piperidin-1-yl)-benzooxazol-5-yl]-amide]
0.857 µM | O=C(Nc1ccc2oc(N3CCCCC3)nc2c1)c1ccc2c(c1)OCO2 [Example 129, Benzo[1,3]dioxole-5-carboxylic acid (2-piperidin-1-yl-benzooxazol-5-yl)-amide]
0.772 µM | O=C(Nc1ccc2oc(N3CCC34CCOC4)nc2c1)c1ccc2c(c1)OCO2 (stereo not shown) [Example 125, Benzo[1,3]dioxole-5-carboxylic acid [2-(6-oxa-1-aza-spiro[3.4]oct-1-yl)-benzooxazol-5-yl]-amide]
0.757 µM | O=C(Nc1ccc2oc(N3CCC34CCOCC4)nc2c1)c1ccc2c(c1)OCO2 [Example 126, Benzo[1,3]dioxole-5-carboxylic acid [2-(7-oxa-1-aza-spiro[3.5]non-1-yl)-benzooxazol-5-yl]-amide]
0.681 µM | O=C(Nc1ccc2oc(N3CCC34COC4)nc2c1)c1ccc2c(c1)CCCO2 [Example 143, Chroman-6-carboxylic acid [2-(6-oxa-1-aza-spiro[3.3]hept-1-yl)-benzooxazol-5-yl]-amide]
0.614 µM | O=C(Nc1ccc2oc(N3CCCC4(COC4)C3)nc2c1)c1ccc2c(c1)OCO2 [Example 133, Benzo[1,3]dioxole-5-carboxylic acid [2-(2-oxa-6-aza-spiro[3.5]non-6-yl)-benzooxazol-5-yl]-amide]
0.504 µM | O=C(Nc1ccc2oc(N3CCC3)nc2c1)c1ccc2c(c1)CCO2 [Example 118, 2,3-Dihydro-benzofuran-5-carboxylic acid (2-azetidin-1-yl-benzooxazol-5-yl)-amide]
0.434 µM | O=C(Nc1ccc2oc(N3CCC34CCC4)nc2c1)c1ccc2c(c1)OCO2 [Example 123, Benzo[1,3]dioxole-5-carboxylic acid [2-(1-aza-spiro[3.3]hept-1-yl)-benzooxazol-5-yl]-amide]
0.414 µM | O=C(Nc1ccc2oc(N3CCC34COC4)nc2c1)c1ccc2c(c1)OCO2 [Example 124, Benzo[1,3]dioxole-5-carboxylic acid [2-(6-oxa-1-aza-spiro[3.3]hept-1-yl)-benzooxazol-5-yl]-amide]
0.379 µM | O=C(Nc1ccc2oc(N3CCCC34COC4)nc2c1)c1ccc2c(c1)CCCO2 [Example 147, Chroman-6-carboxylic acid [2-(2-oxa-5-aza-spiro[3.4]oct-5-yl)-benzooxazol-5-yl]-amide]
